Test [1] is described as follows: Kinetic profile of mineral formation. To be noted: fast = immediate mineral formation; slow = about 5 minutes to about 1 hour. Here is the method: Fast kinetics refers to fast mineral formation, such as immediate mineral formation, while slow mineral formation refers to mineral formation over a period of time, such as about 5 minutes to about 1 hour. In some embodiments, a first biomineralizing peptide having faster kinetics can be used in combination with a second biomineralizing peptide having slower kinetics.

Test [2] in a line: In vitro re-mineralization of tea-stained rat tooth with peptide solution. To be noted: peptide 10 min 37° C., then CaCl2/KH2PO4 16 hours 37° C., control in Tris buffer. Here is the method: Rat teeth (molars) were obtained from sacrificed rats (for example, Sprague Dawley rats, age 3 weeks or older) from animal facility, collected, and stored in 100% alcohol. Prior to the re-mineralization experiments the teeth were stored in 1% bleach for 24 hours. […] The teeth were then dried in an incubator in air at 37° C. for 3-6 hours to produce dry surface. The root site and section the crown were removed vertically using a diamond blade. Pictures were taken with camera attached to optical microscope. Exposed dentine sites in the one half of the sectioned tooth were etched with 35% phosphoric acid (Ultraetch™) for 60 seconds (to facilitate the stain intake). The etching gel was removed by rinsing the sample with distilled water for 3 minutes. The staining solution was prepared by boiling 2 g of tea in 100 ml of deionized water for 5 minutes, and then cooled down to room temperature and filtered. The tooth sample was soaked in the staining solution and incubated at 37° C. at 150 rpm for 24 hours. The tooth was removed from the staining solution and sonicated for 30 seconds in deionized water (sonic bath) to remove the excess amount of tea particles attached to tooth extrinsically. The one half of the sectioned tooth was cut vertically into half again to form two quarter sections of the tooth. A second set of pictures were taken with camera attached to optical microscope. […]

A short description of test [3]: Solution mineralization approach, 25 rounds, colour measured with Minolta Chroma Meter CR-200. As to conditions: unstained sectioned human tooth, peptide 10 minutes, calcium/phosphate ions 2 hours 37° C. From the text: The root site of an extracted human tooth was removed and the crown portion of the tooth was sectioned vertically into half. A thin layer of enamel was removed from one half of the sectioned tooth such that the dentin layer is exposed without completely removing the enamel on the tooth. This allowed imaging of the enamel surfaces after the mineralization experiment without the problem of surface reflection, and provides a more parallel surface from which to compare the whiteness results. The sectioned tooth was fixed onto a glass slide with epoxy. Initial color measurements of each of the four sides of the sectioned tooth was obtained using a Minolta Chroma Meter CR-200 (Konica Minolta, Tokyo, Japan), according to manufacturer instructions, using a white background and a black background. The sectioned tooth was incubated in a mineralization polypeptide solution for 10 minutes at 37° C. and then in a solution with calcium ions and phosphate ions for 2 hours at 37° C. Color measurements of each of the four sides of the sample were taken as described initially. The sectioned was rinsed with deionized water and the remineralization process (incubation in polypeptide solution, incubation in solution of ion sources, and rinsing with deionized water) was repeated for a total of 25 rounds. The mineralization polypeptide was SYENSHSQAINVDRT (shADP5; SEQ ID NO:16).

Test [4] can be described thus: Solution mineralization approach on tetracycline-stained human teeth; line profile analysis (Mean Pixel Intensity). To be noted: for Mean Pixel Intensity: shADP5 0.8 mM, tetracycline-stained. An excerpt:
Human teeth, donated by the University of Washington School of Dentistry (Seattle, Wash., USA), were selected for their clean, smooth surfaces. The teeth were sterilized in bleach, cut on a diamond blade to remove the root, and halved. A thin layer of the enamel surface was then cut on one of the halves parallel to the previous cut, such that the dentin layer could be seen without completely removing the enamel on the tooth. This allowed imaging of the enamel surfaces after the mineralization experiment without the problem of surface reflection encountered in previous experiments, in addition to a more parallel surface from which to compare the brightness or whiteness results. The cut enamel side of the tooth sample was then sonicated in DI water and polished on diamond slurry smooth out the surface for imaging. The sample was then cut into quarters, with the lower half selected for a tetracycline experiment because of the even distribution of dentin coloring in the lower quarters of the tooth sample. The samples were then stained in 10 mg/mL tetracycline solution for five days.
During mineralization, using a 96-well plate, one of the stained halves was stored in 1200 μL Tris (24 mM) as a negative control, and the experimental sample was incubated in 150 μL shADP5 (0.8 mM) at 37° C. for 10 minutes. The experimental sample was then rinsed of excess peptide with deionized water and then stored in 600 μL CaCl2 (9.6 mM), to which 600 μL monobasic KH2PO4 (5.76 mM) was added. The well plate containing both the control and experimental samples was then stored at 37° C. for about 24 hours for mineralization to occur on the treated stained tooth sample.
[…] After 27 rounds of mineralization on the experimental sample, the tooth was inspected for changes in brightness qualitatively. The stained negative control was polished to expose the original enamel stain in order to compare the whitening effect of the peptide mineralization.

Test [5] can be described thus: In vitro re-mineralization of tea-stained human tooth with peptide solution; line profile analysis (Mean Pixel Intensity, ImageJ). As to the method:
A caries-free human tooth was sterilized in 1% bleach solution for 24 hours then removed and vigorously rinsed with deionized water. The root site was removed and the crown sectioned vertically using a diamond blade. Pictures were taken with a camera attached to an optical microscope.
The exposed dentine sites were etched with 35% phosphoric acid (Ultraetch™) for 60 seconds (to facilitate the stain intake). The etching gel was removed by rinsing the sample with distilled water for 3 minutes. The staining solution was prepared by boiling 2 g of tea in 100 ml of deionized water for 5 minutes, which was then cooled down to room temperature and filtered. The tooth was soaked in the staining solution and incubated at 37° C. at 150 rpm for 24 hours. The tooth was then removed from the staining solution and sonicated for 30 seconds in deionized water (sonic bath) to remove the excess amount of tea particles attached to tooth extrinsically. The sectioned tooth was cut vertically in half again to form two quarter sections of the tooth. FIGS. 2(a) to 2(g) show various sections of the tooth after the staining. […] Figures (b), (c) and (d) show different views of the left quarter of the tooth that was sectioned from the tooth. Figures (e), (f) and (g) show different views of the right quarter of the tooth that was sectioned from the tooth. As can be observed from FIGS. 2(a) to 2(g), brown stains from the staining solution were formed on the surface and below the surface of the tooth. The left quarter of the tooth was stored in 24 mM Tris Buffer (pH: 7.4) for control and the right quarter of the tooth (test tooth) was used for in vitro re-mineralization. The test tooth was submerged into peptide solution (600 μl) containing a mineralization polypeptide in a 48 well plate and incubated for 10 minutes at 37° C. After incubation, the tooth was removed and placed into to a new well. A mineralization solution of 400 μl of 9.6 mM CaCl2 and 400 μl of 5.6 mM KH2PO4 was added and quickly mixed by pipetting the solution up and down. […]

“(HPP(S/T)HTLQPHHH(L/I)PVVPAQQPV (A/I)PQQPMMPVPG(H/Q)HSMTP(T/I)QH)1-10 [ADP7]”: in test [1], the “kinetic profile (mineral formation)” value is “slow kinetic profile”.

On to “SYENSHSQAINVDRT [shADP5, shortened amelogenin derived polypeptide ADP5]”, for which the “colour of treated tooth quarter versus control” value in test [2] is given as “lighter in color than the control”; in test [5] (tea-stained human tooth, peptide 10 minutes 37° C., then CaCl2/KH2PO4 16 hours 37° C., control in Tris buffer) it was “lighter in color than the left quarter (control)”. For the same substance, the “whiteness of the tooth enamel” value in test [3] is given as “whiteness of the tooth enamel improved with each round of remineralization”. For the same substance, the “Mean Pixel Intensity” value in test [4] (After 3 rounds of remineralization, Bar B in FIG. 6) worked out at 69.47 ± 2.96; in test [4] (After 4 rounds of remineralization, Bar C in FIG. 6), 70.11 ± 2.92; in test [4] (After 5 rounds of remineralization, Bar D in FIG. 6) it was 70.79 ± 1.96; in test [4] (After 7 rounds of remineralization, Bar E in FIG. 6), 74.47 ± 2.13; in test [5] (Whitened (stained and remineralized), 0 = completely black, 100 = completely white, Bar C in FIG. 4), 96.21 ± 2.39. In addition, in test [4] (repeated rounds of remineralization (3 to 7 rounds)), the “whiteness of the stained tooth” value is listed as “whiteness of the stained tooth improves with repeated rounds of remineralization”. Further, the “whiteness versus original tooth and stained tooth” value in test [5] (after staining and remineralization, from MPI in FIG. 4) is “improved whiteness over the original tooth and the stained tooth”.

On to “(PGYIN(L/F)SYE(K/N)SHSQAIN(T/V)DRTA)1-10 [ADP5]”, for which, in test [1], the “kinetic profile (mineral formation)” value is “fast kinetic profile”.

Source of the values: patent US20180200172A1, “REAGENTS AND METHODS FOR WHITENING TEETH” (UNIVERSITY OF WASHINGTON THROUGH ITS CENTER FOR …, priority 2015, published 2018).
